pIC50: −log10 of the molar value. Read-outs that look alike come from different tables or passages of the source.
Experiments:
[1] = test system: colorectal cancer cell lines (e.g. DLD-1, HCT 116, SW620, HCT-15, HCT-8, RKO); experiment: Cell based assay, cell viability (CellTiter-Glo), colorectal cancer cell lines
Procedure: (§1) Commercially available bladder cancer, prostate cancer, lung cancer, breast cancer, blood cancer, pancreatic cancer, colorectal cancer, brain cancer, neuroblastoma, melanoma, liver cancer, cervical carcinoma, ovarian cancer, renal cancer, and papilloma cell lines were each treated with trypsin-EDTA and cultured, followed by being seeded in each well of a 96 well plate. After 24 hours of treatment at constant temperature, the respective cells were treated with the candidate compound so that a final concentration became 0 to 2 μM. The treated cells were additionally cultured for 72 hours, and cell viability was measured by using an ATP detection method (CellTiter-Glo® Luminescent Cell Viability Assay, Promega).

liver cancer cell lines = experiment: Cell based assay, cell viability (CellTiter-Glo), liver cancer cell lines; conditions: Homo sapiens, SK-HEP1; SK-HEP-1 cell line
Procedure: as §1

[2] = Homo sapiens, DLD-1, 72 hours treatment, read-out: IC50, colorectal cancer cell line DLD-1
[3] = Homo sapiens, HCT 116, 72 hours treatment, read-out: IC50, colorectal cancer cell line HCT 116
[4] = Homo sapiens, HCT-8, 72 hours treatment, read-out: IC50, colorectal cancer cell line HCT-8
[5] = Homo sapiens, HCT-15, 72 hours treatment, read-out: IC50, colorectal cancer cell line HCT-15
[6] = Homo sapiens, HT-29, 72 hours treatment, read-out: IC50, colorectal cancer cell line HT-29
[7] = Homo sapiens, LoVo, 72 hours treatment, read-out: IC50, colorectal cancer cell line LoVo
[8] = Homo sapiens, SW480, 72 hours treatment, read-out: IC50, colorectal cancer cell line SW480
[9] = Homo sapiens, SW-620, SW620, 72 hours treatment, read-out: IC50, colorectal cancer cell line SW620
[10] = RKO, 72 hours treatment, read-out: IC50, colorectal cancer cell line RKO
[11] = Homo sapiens, DLD-1 cells, 72 hours treatment, read-out: IC50, colorectal cancer cell line DLD-1
[12] = Homo sapiens, HCT 116 cells, 72 hours treatment, read-out: IC50, colorectal cancer cell line HCT 116
[13] = Homo sapiens, HCT-8 cells, 72 hours treatment, read-out: IC50, colorectal cancer cell line HCT-8
[14] = Homo sapiens, HCT-15 cells, 72 hours treatment, read-out: IC50, colorectal cancer cell line HCT-15
[15] = Homo sapiens, HT-29 cells, 72 hours treatment, read-out: IC50, colorectal cancer cell line HT-29
[16] = Homo sapiens, LoVo cells, 72 hours treatment, read-out: IC50, colorectal cancer cell line LoVo
[17] = Homo sapiens, RKO cells, 72 hours treatment, read-out: IC50, colorectal cancer cell line RKO
[18] = Homo sapiens, SW480 cells, 72 hours treatment, read-out: IC50, colorectal cancer cell line SW480
[19] = Homo sapiens, SW-620, SW620 cells, 72 hours treatment, read-out: IC50, colorectal cancer cell line SW620

SMILES	pIC50 [1, 2]	pIC50 [1, 3]	pIC50 [1, 4]	pIC50 [1, 5]	pIC50 [1, 6]	pIC50 [1, 7]	pIC50 [1, 8]	pIC50 [1, 9]	pIC50 [1, 10]	pIC50 (liver cancer cell lines)	pIC50 [1, 11]	pIC50 [1, 12]	pIC50 [1, 13]	pIC50 [1, 14]	pIC50 [1, 15]	pIC50 [1, 16]	pIC50 [1, 17]	pIC50 [1, 18]	pIC50 [1, 19]
CC(=O)c1c(SCc2ccccc2)nc2c(Br)ccc(Cl)c2c1O [Compound 52, 1-(2-(benzylthio)-8-bromo-5-chloro-4-hydroxyquinolin-3-yl)ethan-1-one]	< 5.70	< 5.70	< 5.70	< 5.70	< 5.00	< 5.70	< 5.70	< 5.70	< 5.70	< 5.70									
COCSc1[nH]c2c(Br)ccc(Cl)c2c(=O)c1C(C)=O [Compound 61, 3-acetyl-8-bromo-5-chloro-2-((methoxymethyl)thio)quinolin-4(1H)-one]	< 5.70	< 5.70	< 5.70	< 5.70	< 5.00	< 5.70	< 5.70	< 5.70	< 5.70	< 5.70									
CC(=O)c1c([S+]([O-])Cc2ccccc2)nc2c(Br)ccc(Cl)c2c1O (stereo not shown) [Compound 4]	5.74	5.94	5.80	5.88	< 5.00	5.74	< 5.70	5.88	5.81	5.95									
CCS(=O)(=O)n1c([S+](C)[O-])c(C(C)=O)c(=O)c2c(Cl)ccc(Br)c21 (stereo not shown) [Compound 39, 3-acetyl-8-bromo-5-chloro-1-(ethylsulfonyl)-2-(methylsulfinyl)quinolin-4(1H)-one]	< 5.70	< 5.70	< 5.70	< 5.70	< 5.00	< 5.70	< 5.70	< 5.70	< 5.70	< 5.70									
CC(=O)c1c(SCc2ccccc2)n(C(=O)c2ccc(Br)cc2)c2c(Br)ccc(Cl)c2c1=O [Compound 23, 3-acetyl-2-(benzylthio)-8-bromo-1-(4-bromobenzoyl)-5-chloroquinolin-4(1H)-one]	< 5.70	< 5.70	< 5.70	< 5.70	< 5.00	< 5.70	< 5.70	< 5.70	< 5.70	< 5.70									
CC(=O)c1c(SCc2cc(F)cc(F)c2)[nH]c2c(Br)ccc(Cl)c2c1=O [Compound 45, 3-acetyl-8-bromo-5-chloro-2-((3,5-difluorobenzyl)thio)quinolin-4(1H)-one]	< 5.70	< 5.70	< 5.70	< 5.70	< 5.00	< 5.70	< 5.70	< 5.70	< 5.70	< 5.70									
COCCNc1ccc(C[S+]([O-])c2[nH]c3c(Br)ccc(Cl)c3c(=O)c2C(C)=O)cn1 (stereo not shown) [Compound 105, 3-acetyl-8-bromo-5-chloro-2-(((6-((2-methoxyethyl)amino)pyridin-3-yl)methyl)sulfinyl)quinolin-4(1H)-one]										< 5.70	< 5.70	< 5.70	< 5.70	< 5.70	< 5.00	< 5.70	< 5.70	< 5.70	< 5.70
CC(=O)c1c([S+]([O-])Cc2cnc3[nH]ccc3c2)[nH]c2c(Br)ccc(Cl)c2c1=O (stereo not shown) [Compound 107, 2-(((1H-pyrrolo[2,3-b]pyridin-5-yl)methyl)sulfinyl)-3-acetyl-8-bromo-5-chloroquinolin-4(1H)-one]										< 5.70	< 5.70	< 5.70	< 5.70	< 5.70	< 5.00	< 5.70	< 5.70	< 5.70	< 5.70
CC(=O)c1c(Sc2ccc(Br)cc2)[nH]c2c(Br)ccc(Cl)c2c1=O [Compound 16, 3-acetyl-8-bromo-2-((4-bromophenyl)thio)-5-chloroquinolin-4(1H)-one]	< 5.70	< 5.70	< 5.70	< 5.70	< 5.00	< 5.70	< 5.70	< 5.70	< 5.70	< 5.70									
COc1cccc2[nH]c(SCc3ccc(S(F)(F)(F)(F)F)cc3)c(C(C)=O)c(=O)c12 [Compound 92, 3-acetyl-5-methoxy-2-((4-(pentafluoro--sulfanyl)benzyl)thio)quinolin-4(1H)-one]										< 5.70	< 5.70	< 5.70	< 5.70	< 5.70	< 5.00	< 5.70	< 5.70	< 5.70	< 5.70
CC(=O)c1c(SCc2cccc(F)c2)[nH]c2c(Br)ccc(Cl)c2c1=O [Compound 49, 3-acetyl-8-bromo-5-chloro-2-((3-fluorobenzyl)thio)quinolin-4(1H)-one]	< 5.70	< 5.70	< 5.70	< 5.70	< 5.00	< 5.70	< 5.70	< 5.70	< 5.70	< 5.70									
CC(=O)c1c([S+]([O-])Cc2ccc(S(F)(F)(F)(F)F)cc2)[nH]c2c(F)ccc(F)c2c1=O (stereo not shown) [Compound 80, 3-acetyl-5,8-difluoro-2-((4-(pentafluoro--sulfanyl)benzyl)sulfinyl)quinolin-4(1H)-one]	< 5.70	< 5.70	< 5.70	< 5.70	< 5.00	< 5.70	< 5.70	< 5.70	< 5.70	< 5.70									
CC(=O)c1c(SC(C)C)[nH]c2c(Br)ccc(Cl)c2c1=O [Compound 24, 3-acetyl-8-bromo-5-chloro-2-(isopropylthio)quinolin-4(1H)-one]	< 5.70	< 5.70	< 5.70	< 5.70	< 5.00	< 5.70	< 5.70	< 5.70	< 5.70	< 5.70									
O=C(c1ccccc1)c1c([S+]([O-])Cc2ccc(S(F)(F)(F)(F)F)cc2)[nH]c2c(F)ccc(F)c2c1=O (stereo not shown) [Compound 87, 3-benzoyl-5,8-difluoro-2-((4-(pentafluoro--sulfanyl)benzyl)sulfinyl)quinolin-4(1H)-one]										< 5.70	< 5.70	< 5.70	< 5.70	< 5.70	< 5.00	< 5.70	< 5.70	< 5.70	< 5.70
CC(=O)c1c([S+](C)[O-])n(S(=O)(=O)C(F)(F)F)c2c(Br)ccc(Cl)c2c1=O (stereo not shown) [Compound 36, 3-acetyl-8-bromo-5-chloro-2-(methylsulfinyl)-1-((trifluoromethyl)sulfonyl)quinolin-4(1H)-one]	< 5.70	< 5.70	< 5.70	< 5.70	< 5.00	< 5.70	< 5.70	< 5.70	< 5.70	< 5.70									
CC(=O)c1c([S+]([O-])Cc2cccc(C#N)c2)[nH]c2c(Br)ccc(Cl)c2c1=O (stereo not shown) [Compound 28, 3-(((3-acetyl-8-bromo-5-chloro-4-oxo-1,4-dihydroquinolin-2-yl)sulfinyl)methyl)benzonitrile]	6.03	6.02	5.89	5.97	< 5.00	5.72	5.91	5.96	5.96	6.12									
CC(=O)c1c([S+]([O-])c2ccccc2)[nH]c2c(Br)ccc(Cl)c2c1=O (stereo not shown) [Compound 13, 3-acetyl-8-bromo-5-chloro-2-(phenylsulfinyl)quinolin-4(1H)-one]	< 5.70	< 5.70	< 5.70	< 5.70	< 5.00	< 5.70	< 5.70	< 5.70	< 5.70	< 5.70									
CSc1c(C(C)=O)c(=O)c2c(Cl)ccc(Br)c2n1C(C)=O [Compound 18, 1,1′-(8-bromo-5-chloro-2-(methylthio)-4-oxoquinoline-1,3(4H)-diyl)bis(ethan-1-one)]	< 5.70	< 5.70	< 5.70	< 5.70	< 5.00	< 5.70	< 5.70	< 5.70	< 5.70	< 5.70									
CC(=O)c1c(SCc2ccc(Cl)cc2)[nH]c2c(Br)ccc(Cl)c2c1=O [Compound 10, 3-acetyl-8-bromo-5-chloro-2-((4-chlorobenzyl)thio)quinolin-4(1H)-one]	< 5.70	< 5.70	< 5.70	< 5.70	< 5.00	< 5.70	< 5.70	< 5.70	< 5.70	< 5.70									
CC(=O)c1c(S)[nH]c2c(Br)ccc(Cl)c2c1=O [Compound 62, 3-acetyl-8-bromo-5-chloro-2-mercaptoquinolin-4(1H)-one]	< 5.70	< 5.70	< 5.70	< 5.70	< 5.00	< 5.70	< 5.70	< 5.70	< 5.70	< 5.70									
CC(=O)c1c(SCc2cc(Cl)ccc2Cl)[nH]c2c(Br)ccc(Cl)c2c1=O [Compound 43, 3-acetyl-8-bromo-5-chloro-2-((2,5-dichlorobenzyl)thio)quinolin-4(1H)-one]	< 5.70	< 5.70	< 5.70	< 5.70	< 5.00	< 5.70	< 5.70	< 5.70	< 5.70	< 5.70									
CC(=O)c1c([S+]([O-])CN2C(=O)c3ccccc3C2=O)[nH]c2c(Cl)ccc(Cl)c2c1=O (stereo not shown) [Compound 90, 2-(((3-acetyl-5,8-dichloro-4-oxo-1,4-dihydroquinolin-2-yl)sulfinyl)methyl)isoindoline-1,3-dione]										< 5.70	< 5.70	< 5.70	< 5.70	< 5.70	< 5.00	< 5.70	< 5.70	< 5.70	< 5.70

From patent US11464770B2, “Anticancer pharmaceutical composition” (NATIONAL CANCER CENTER, priority 2016, dated 2022)
